In patent US20050124685A1, “Polyether brevetoxin derivatives as a treatment for neurotoxic shellfish poisoning and ciguatera fish poisoning” (priority 2003, published 2005):
Like-named read-outs stand apart in the source and are kept apart here.

Key:
[1] = tested on: isolated rat brain sodium channels (site 5); details: read-out: Ki, competitive displacement assay, synaptosomal binding
sodium channels [2] = assay: Patch clamp single sodium channel currents in membrane patches; format: cell-based; details: 100 nM, n=6, FIG. 2C, 2D
Experimental: FIG. 2A-D illustrates single sodium channel currents in patch clamp sodium channels during successive command depolarizations to −10 mV from a command potential of −100 mV in the same membrane patch before (2A) and after (2B) exposure to β-naphthoyl-PbTx-3 (100 nM, n=6). […] The average area under the β-naphthoyl-PbTx-3 curve was 71.8±18.3% less than that of PbTx-3.
FIG. 3A-E illustrates the steady state currents in four different membrane patches at a steady state command voltage of −50 mV. 3A are control traces preceeding the test with PbTx-3, and are representative of control recordings observed in all four patches during 7.2 s of continuous observation. 3B are traces for membrane patches exposed to PbTx-3 (100 nM, […]). 3C are traces for membrane patches exposed to benzoyl-PbTx-3 (100 nM, n=6). 3D are traces for membrane patches exposed to α-naphthoyl-PbTx-3 (100 nM, n=6). 3E are traces for membrane patches exposed to β-naphthoyl-PbTx-3 (100 nM, n=6). The experimental recordings are representative of 7.2 s of continuous observation in PbTx-3 or the particular derivative.

[3] = tested on: isolated rat brain sodium channels (site 5); details: Purkerson-Parker, et al., 2000; cited from earlier work
sodium channels [4] = details: steady state; Purkerson-Parker, et al., 2000; cited from earlier work
[5] = isolated rat brain sodium channels, FIG. 1

α-Naphthoyl-PbTx-3
Ki [1, 5]: 4.68 nM

C=C(CO)CC1CC(O)C2(C)OC3CC4OC5CC6(C)OC7(C)CCC8OC9CC%10(C)OC%11C(C)=CC(=O)OC%11CC%10OC9CC(C)C8OC7CC6OC5(C)CC=CC4OC3CC2O1 (centres unmarked) [PbTx-3, reference compound]
Ki [1]: 3 nM

β-Naphthoyl-PbTx-3
Ki [1, 5]: 1.06 nM | average area under the ensemble average curve, less than that of PbTx-3 (sodium channels [2]; depolarizations to −10 mV from command potential of −100 mV): 71.8±18.3% | peak sodium current (ensemble averages) (sodium channels [2]; depolarizations to −10 mV from −100 mV): reduction in peak sodium current | displacement of native toxin from binding site [3]: displaces the native toxin from its binding site | opening of sodium channels (sodium channels [4]): does not elicit opening of sodium channels in steady state

Benzoyl-PbTx-3
Ki [1, 5]: 0.2 nM
